Test results taken from PubChem BioAssay (NCI).
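48-hour exposure; five concentrations; linearly interpolated endpoints. At the GI50, growth is halved. Definition used: TGI = concentration required for complete inhibition of growth.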

Legend:
Assay in all cases: NCI anticancer screen, dose series, 48 h
ACHN renal = tested on: ACHN renal
BT-549 breast = tested on: BT-549 breast
COLO 205 colon = tested on: COLO 205 colon
HCT-15 colon = tested on: HCT-15 colon
M14 melanoma = tested on: M14 melanoma
MDA-N = tested on: MDA-N
MOLT-4 leukemia = tested on: MOLT-4 leukemia
NCI-H226 lung = tested on: NCI-H226 lung
OVCAR-3 ovarian = tested on: OVCAR-3 ovarian
OVCAR-5 ovarian = tested on: OVCAR-5 ovarian
OVCAR-8 ovarian = tested on: OVCAR-8 ovarian
RXF 393 renal = tested on: RXF 393 renal
SK-OV-3 ovarian = tested on: SK-OV-3 ovarian
SW-620 colon = tested on: SW-620 colon
UACC-62 melanoma = tested on: UACC-62 melanoma
HOP-92 NSCLC = tested on: HOP-92 NSCLC
NCI-H460 lung = tested on: NCI-H460 lung
OVCAR-4 ovarian = tested on: OVCAR-4 ovarian
SNB-75 CNS = tested on: SNB-75 CNS

SMILES	TGI (ACHN renal)	TGI (BT-549 breast)	TGI (COLO 205 colon)	TGI (HCT-15 colon)	TGI (M14 melanoma)	TGI (MDA-N)	TGI (MOLT-4 leukemia)	TGI (NCI-H226 lung)	TGI (OVCAR-3 ovarian)	TGI (OVCAR-5 ovarian)	TGI (OVCAR-8 ovarian)	TGI (RXF 393 renal)	TGI (SK-OV-3 ovarian)	TGI (SW-620 colon)	TGI (UACC-62 melanoma)	TGI (HOP-92 NSCLC)	TGI (NCI-H460 lung)	TGI (OVCAR-4 ovarian)	TGI (SNB-75 CNS)	GI50 (HOP-92 NSCLC)
CC(C)(Oc1ccc(Cl)cc1)C(=O)N(C(=O)N1CCCCC1)c1ccccc1	28.1 µM	30.4 µM	> 100 µM	24.6 µM	52.1 µM	> 100 µM	84.8 µM	51 µM	75.1 µM	36.7 µM	31.4 µM	33.3 µM	40.4 µM	> 100 µM	27.5 µM	–	–	–	–	–
CC(O)CN1c2ccccc2Sc2ccccc21 (centres undefined)	> 100 µM	> 100 µM	> 100 µM	> 100 µM	> 100 µM	> 100 µM	> 100 µM	> 100 µM	> 100 µM	> 100 µM	> 100 µM	> 100 µM	> 100 µM	> 100 µM	> 100 µM	> 100 µM	> 100 µM	> 100 µM	–	–
O=C(Cc1ccccc1)NN1C(=O)/C(=C\c2cccc([N+](=O)[O-])c2)SC1=Nc1ccccc1	> 100 µM	–	> 100 µM	> 100 µM	> 100 µM	> 100 µM	> 100 µM	> 100 µM	> 100 µM	> 100 µM	> 100 µM	> 100 µM	> 100 µM	> 100 µM	> 100 µM	> 100 µM	> 100 µM	> 100 µM	> 100 µM	–
COc1ccccc1C(=O)NO	> 100 µM	> 100 µM	> 100 µM	> 100 µM	> 100 µM	> 100 µM	> 100 µM	> 100 µM	> 100 µM	> 100 µM	> 100 µM	> 100 µM	> 100 µM	> 100 µM	> 100 µM	–	> 100 µM	> 100 µM	> 100 µM	–
COc1cc2c(c(O)c1OC)C(=O)[C@@H]1CCC(=O)N1C2c1ccccc1 (some centres undefined)	> 100 µM	> 100 µM	> 100 µM	> 100 µM	> 100 µM	> 100 µM	> 100 µM	> 100 µM	> 100 µM	> 100 µM	> 100 µM	–	> 100 µM	> 100 µM	> 100 µM	–	> 100 µM	> 100 µM	> 100 µM	–
CCCC1CC(=O)NC(=O)C1C(=O)OC(C)(C)C (centres undefined)	> 100 µM	> 100 µM	> 100 µM	> 100 µM	–	> 100 µM	> 100 µM	> 100 µM	> 100 µM	> 100 µM	> 100 µM	> 100 µM	–	> 100 µM	> 100 µM	–	> 100 µM	> 100 µM	> 100 µM	–
CC1(C)C2CCC1(C)C(OC(=O)/C=C/C(=O)OC1CC3CCC1(C)C3(C)C)C2 (centres undefined)	> 100 µM	> 100 µM	> 100 µM	> 100 µM	> 100 µM	> 100 µM	45.9 µM	–	> 100 µM	> 100 µM	> 100 µM	> 100 µM	–	> 100 µM	> 100 µM	> 100 µM	> 100 µM	> 100 µM	86.6 µM	–
O=C(O)c1ccccc1CC1Cc2cc3c(cc2C1)CCC3	> 100 µM	> 100 µM	> 100 µM	> 100 µM	> 100 µM	> 100 µM	> 100 µM	> 100 µM	> 100 µM	> 100 µM	> 100 µM	> 100 µM	> 100 µM	> 100 µM	> 100 µM	–	> 100 µM	> 100 µM	> 100 µM	–
CCOC(=O)c1ccc(C(=O)n2ccnc2)[nH]1	> 100 µM	> 100 µM	> 100 µM	> 100 µM	> 100 µM	> 100 µM	> 100 µM	> 100 µM	> 100 µM	> 100 µM	> 100 µM	> 100 µM	–	> 100 µM	> 100 µM	–	> 100 µM	> 100 µM	> 100 µM	–
COc1ccc2[nH]c3c(c2c1)CC(=O)N1CCCC(CC3O)C1 (centres undefined)	> 100 µM	> 100 µM	> 100 µM	> 100 µM	–	> 100 µM	–	> 100 µM	–	–	> 100 µM	–	> 100 µM	> 100 µM	> 100 µM	> 100 µM	> 100 µM	> 100 µM	> 100 µM	–
CC(C)CCNC(=O)C(CC(C)C)NC(=O)[C@H]1O[C@@H]1C(=O)O (some centres undefined)	–	> 100 µM	> 100 µM	> 100 µM	> 100 µM	> 100 µM	> 100 µM	> 100 µM	> 100 µM	> 100 µM	> 100 µM	–	> 100 µM	> 100 µM	> 100 µM	> 100 µM	> 100 µM	> 100 µM	> 100 µM	–
Cc1cc(=O)oc2c(CNC(CO)C(=O)O)c(O)ccc12 (centres undefined)	> 100 µM	–	> 100 µM	> 100 µM	> 100 µM	> 100 µM	> 100 µM	> 100 µM	> 100 µM	> 100 µM	> 100 µM	> 100 µM	> 100 µM	> 100 µM	> 100 µM	> 100 µM	> 100 µM	> 100 µM	> 100 µM	–
CC[C@]12C=CCN3CCC4(c5cc([C@@]6(C(=O)OC)CC7CN(CCc8c6[nH]c6ccccc86)C[C@@H]6CCCC[C@H]76)c(OC)cc5N(C)C4[C@](O)(C(=O)OC)C1OC(C)=O)[C@@H]32 (some centres undefined)	5.53 µM	21.2 µM	< 0.01 µM	12.5 µM	3.14 µM	< 0.01 µM	> 100 µM	15.3 µM	–	8.83 µM	–	–	–	16 µM	17.8 µM	16.9 µM	0.0425 µM	19.3 µM	–	0.0672 µM
Cc1ccc(Cc2nn(C)c(=O)n2N)cc1	> 100 µM	> 100 µM	> 100 µM	> 100 µM	> 100 µM	> 100 µM	–	> 100 µM	> 100 µM	> 100 µM	> 100 µM	–	> 100 µM	> 100 µM	> 100 µM	> 100 µM	> 100 µM	> 100 µM	–	–
Cc1ccc(OCC2OC(n3cnc4nc(Nc5ccc(Cl)c(Cl)c5)nc(Cl)c43)CC2Oc2ccc(C)cc2)cc1 (centres undefined)	> 100 µM	> 100 µM	> 100 µM	> 100 µM	> 100 µM	> 100 µM	> 100 µM	> 100 µM	> 100 µM	> 100 µM	> 100 µM	> 100 µM	> 100 µM	> 100 µM	> 100 µM	–	> 100 µM	> 100 µM	> 100 µM	–
COc1cc(C2OC(N)=C(C#N)C3=C2C(C)CCC3)cc(OC)c1OC (centres undefined)	> 100 µM	> 100 µM	> 100 µM	> 100 µM	> 100 µM	> 100 µM	> 100 µM	> 100 µM	> 100 µM	> 100 µM	> 100 µM	> 100 µM	> 100 µM	> 100 µM	> 100 µM	–	–	–	94.8 µM	–
CCOC(=O)CC[C@H](NC(=O)N[C@H](C)c1ccccc1)C(=O)OCC	> 100 µM	> 100 µM	32.7 µM	> 100 µM	28.2 µM	38.2 µM	52.5 µM	> 100 µM	41.5 µM	> 100 µM	> 100 µM	–	> 100 µM	> 100 µM	34.8 µM	39.3 µM	> 100 µM	> 100 µM	–	–
CC(C)(C)C1CCC2c3c([nH]c4ccccc34)C3C(=O)N(c4ccccc4Cl)C(=O)C3C2C1 (centres undefined)	70.2 µM	61.6 µM	–	31.6 µM	45.7 µM	29.3 µM	> 100 µM	–	47.3 µM	–	50 µM	33.3 µM	> 100 µM	22.7 µM	45.4 µM	0.739 µM	15.8 µM	–	–	–
CCC1(CC)C(=O)N(C(=O)c2ccccc2)N(C(=O)c2ccc(Cl)cc2)C1=O	> 75 µM	> 75 µM	> 75 µM	> 75 µM	> 75 µM	> 75 µM	47.7 µM	> 75 µM	> 75 µM	> 75 µM	> 75 µM	> 75 µM	> 75 µM	> 75 µM	> 75 µM	–	> 75 µM	> 75 µM	> 75 µM	–
CCOC(=O)Cc1nnc2n(-c3ccccc3)c(=O)c3ccccc3n12	> 100 µM	–	> 100 µM	> 100 µM	> 100 µM	> 100 µM	> 100 µM	> 100 µM	> 100 µM	> 100 µM	> 100 µM	> 100 µM	> 100 µM	> 100 µM	> 100 µM	> 100 µM	> 100 µM	> 100 µM	> 100 µM	–
C/C(N)=C/C(=O)c1[nH]c(C(=O)O)cc1C1CCN(Cc2ccccc2)C1=O (centres undefined)	> 100 µM	74.6 µM	65.1 µM	> 100 µM	39 µM	69.7 µM	57.9 µM	–	55.6 µM	> 100 µM	50.8 µM	45.2 µM	71.3 µM	> 100 µM	55.6 µM	55 µM	> 100 µM	> 100 µM	88.4 µM	–
CC(NCc1c(O)ccc2ccc(=O)oc12)C(=O)O (centres undefined)	> 100 µM	–	> 100 µM	> 100 µM	> 100 µM	> 100 µM	> 100 µM	> 100 µM	> 100 µM	> 100 µM	> 100 µM	> 100 µM	> 100 µM	> 100 µM	> 100 µM	> 100 µM	> 100 µM	> 100 µM	> 100 µM	–
O=c1cc(NNCc2ccccc2)[nH]c(=O)[nH]1	> 100 µM	> 100 µM	> 100 µM	> 100 µM	> 100 µM	> 100 µM	> 100 µM	> 100 µM	> 100 µM	> 100 µM	> 100 µM	> 100 µM	–	> 100 µM	–	> 100 µM	> 100 µM	> 100 µM	–	–
Cc1cc(C)nc(NS(=O)(=O)c2ccc(Nc3c4ccccc4nc4c(C(=O)NC(CO)(CO)CO)cccc34)cc2)n1	> 100 µM	44.2 µM	42.6 µM	> 100 µM	> 100 µM	68.8 µM	> 100 µM	–	> 100 µM	88.4 µM	> 100 µM	–	> 100 µM	> 100 µM	> 100 µM	> 100 µM	35.3 µM	> 100 µM	55.2 µM	–
O=[N+]([O-])c1ccc(N/N=C2/CC3=C2CCCCCCCCCC3)c([N+](=O)[O-])c1	> 100 µM	> 100 µM	> 100 µM	> 100 µM	> 100 µM	> 100 µM	> 100 µM	> 100 µM	> 100 µM	> 100 µM	> 100 µM	> 100 µM	> 100 µM	> 100 µM	> 100 µM	–	> 100 µM	> 100 µM	> 100 µM	–
N#Cc1ccc(-c2nc3c(N)nc(-c4ccccc4)nc3o2)cc1	> 100 µM	> 100 µM	> 100 µM	> 100 µM	> 100 µM	> 100 µM	> 100 µM	> 100 µM	> 100 µM	> 100 µM	> 100 µM	> 100 µM	–	> 100 µM	> 100 µM	> 100 µM	> 100 µM	> 100 µM	> 100 µM	–
O=c1oc2ccccc2c(O)c1C(c1cnc2ccccc2c1)c1c(O)c2ccccc2oc1=O	–	68 µM	> 100 µM	> 100 µM	–	69.5 µM	97.7 µM	> 100 µM	> 100 µM	–	> 100 µM	–	–	> 100 µM	35.4 µM	58.6 µM	> 100 µM	> 100 µM	52.7 µM	–
